Experimental data reported in ChEMBL document CHEMBL5441456, “ASAP - SARS-CoV-2 nsp3 macrodomain dose response” (2024).
Several values for one entry are separate records, joined by “and”; a condition that tells them apart may be missing. Identical values can stand only once.

How the values were obtained:
[1] = target: T1, Replicase polyprotein 1ab (Severe acute respiratory syndrome coronavirus 2, UniProt P0DTD1); test: Functional biochemical assay to identify treatments for viral infectious disease that targets SARS-COV-2 nsp3 macrodomain, whereby the mechanism of action displaces an ADP-Ribose modified peptide from the binding site. Utilizing a time-resolved fluorescence method to measure binding by reading the emitted fluorescence intensity in two wavelengths.
[2] = target: T1, Replicase polyprotein 1ab; test: Functional biochemical assay to identify treatments for viral infectious disease that targets SARS-COV-2 nsp3 macrodomain, whereby the mechanism of action inhibits ADP-Ribose hydrolase activity. Utilizing an enzymatic assay to monitor the conversion of alpha-NAD+ to ADP-Ribose and nicotinamide. ADP-ribose was quantified by LC-MS/MS after precipitation of proteins.

Row | Compound | IC50 [1] | IC50 [2]
1 | Cn1ncc(-c2cc3c(N[C@@H](c4ccc5c(n4)OCCO5)C(C)(C)C)ncnc3[nH]2)c1C#N | 46 nM and 30 nM (2×) and 20 nM | 133 nM and 191 nM and 235 nM
2 | Cc1nn(C)cc1-c1cc2c(N[C@H](c3ccc4c(c3)S(=O)(=O)CCC4)C(C)C)ncnc2[nH]1 | 28 nM (3×) and 14 nM and 32 nM and 13 nM and 24 nM and 36 nM and 12 nM and 11 nM | 322 nM and 241 nM and 288 nM
3 | CC(C)[C@@H](Nc1ncnc2[nH]c(C(=O)N[C@@H]3CCN(C)C3)cc12)c1ccc2c(c1)S(=O)(=O)CCC2 | 65 nM and 66 nM and 72 nM and 58 nM | 479 nM and 316 nM and 454 nM
4 | COc1ccc([C@H](Cc2nnn[nH]2)NC(=O)c2ncnc3[nH]ccc23)cc1 | 349 nM and 319 nM | 2340 nM and 1490 nM and 1610 nM
5 | CNCc1cc(-c2cc3c(N[C@@H](c4ccc5c(c4)S(=O)(=O)CCC5)C(C)C)ncnc3[nH]2)co1 | 25 nM and 41 nM and 22 nM and 19 nM (2×) and 12 nM | 289 nM and 396 nM and 533 nM
6 | CC(C)[C@@H](Nc1ncnc2[nH]ccc12)c1ccc2c(c1)NC(=O)CO2 | 700 nM and 722 nM and 396 nM and 378 nM | 2960 nM
7 | C[C@H](C(=O)O)[C@@H](NC(=O)c1ncnc2[nH]ccc12)c1ccc(Br)cc1 | 794 nM and 622 nM and 340 nM | 1340 nM and 1900 nM and 1800 nM
8 | CNC(=O)Cn1cc(-c2cc3c(N[C@@H](c4ccc5c(c4)S(=O)(=O)CCC5)C(C)C)ncnc3[nH]2)cn1 | 35 nM and 19 nM and 30 nM and 18 nM and 16 nM and 15 nM and 10 nM | 204 nM and 197 nM and 288 nM
9 | CC(C)[C@@H](Nc1ncnc2[nH]c(-c3cnn(C)c3C#N)cc12)c1ccc2c(n1)OCCO2 | 68 nM and 74 nM and 40 nM and 29 nM and 59 nM and 67 nM | 283 nM and 156 nM and 312 nM
10 | CC(C)[C@H](Nc1ncnc2[nH]c(-c3cnn(C)c3C#N)cc12)c1ccc2c(n1)OCCO2 | 19300 nM and 19100 nM and 30800 nM and 19000 nM | > 4000 nM
11 | CC(C)[C@H](Nc1ncnc2[nH]ccc12)c1ccc2c(c1)S(=O)(=O)CCC2 | 93 nM and 138 nM and 85 nM | 803 nM and 194 nM and 512 nM
12 | CC(C)[C@@H](Nc1ncnc2[nH]c(-c3cnn(C)c3)cc12)c1ccc2c(c1)S(=O)(=O)CCC2 | 36 nM and 54 nM and 19 nM and 34 nM (2×) and 17 nM and 29 nM and 27 nM and 35 nM and 15 nM | 328 nM and 264 nM
13 | CC(C)(C)[C@@H](Nc1ncnc2[nH]c(-c3cnn(CC(N)=O)c3)cc12)c1ccc2c(n1)OCCO2 | 82 nM and 64 nM and 54 nM | 203 nM
14 | CNC(=O)c1c[nH]c2ncnc(N[C@H](c3ccc4c(c3)S(=O)(=O)CCC4)C(C)C)c12 | 120 nM and 110 nM | 246 nM
15 | CC(C)[C@H](Nc1ncncc1-c1nc[nH]n1)c1ccc2c(c1)S(=O)(=O)CCC2 | > 99500 nM | 
16 | CC(C)[C@H](Nc1ncnc2c1CCN2)c1ccc2c(c1)S(=O)(=O)CCC2 | 52100 nM | 
17 | CC(C)[C@@H](Nc1ncnc2[nH]c(Br)cc12)c1ccc2c(c1)S(=O)(=O)CCC2 | 336 nM | 
18 | CC(C)[C@H](Nc1ncnc2cn[nH]c12)c1ccc2c(c1)S(=O)(=O)CCC2 | > 99500 nM | 
19 | CC(C)[C@@H](Oc1ncnc2[nH]ccc12)c1ccc2c(c1)OCCO2 | > 99500 nM | 
20 | CC(C)[C@H](Nc1ncncc1N1CCNCC1)c1ccc2c(c1)S(=O)(=O)CCC2 | > 99500 nM | 
